Measured values as given in patent US7507727B2, “Substituted quinobenzoxazine analogs and methods of using thereof” (Cylene Pharmaceuticals, Inc., priority 2003, dated 2009).
“And” between values parts separate entries of the source, which are not always exact repeats. Equal entries are not always repeated. Where two headings read alike, the source gives them in different places.

Assays:
[1] = system: Chinese Hamster Ovary Cells (CHO); experiment: In vitro chromosome aberration assay (incl. mitotic index); type: cell-based
[2] = system: Salmonella typhimurium (TA97a, TA98, TA100, TA102, TA1535); settings: positive control
Experimental: This Mutagenicity Assessment (Ames Assay) evaluated the potential of the test article extracts to induce histidine (his) reversion in S. typhimurium (his− to his+) or tryptophan (trp) reversion in E. coli (trp− to trp+) caused by base changes or frameshift mutations in the genome of tester organisms.
This plate incorporation assay was conducted with five strains of Salmonella typhimurium (TA97a, TA98, TA100, TA102, and TA1535) and one strain of Escherichia coli (WP2-uvrA^−) in the presence and absence of an exogenous mammalian activation system (S9). The test article was dissolved in 5% dextrose. A series of dilutions were then prepared in saline just prior to testing. A Range Finding Study was conducted for this assay to determine the appropriate doses for definitive mutagenicity assessment.
A stock solution of test article was prepared at 20.0 mg/mL as follows: 1.0 g test article was added to 15.0 mL of 0.1 HCl for 1 minute. The test article was stirred for 15 minutes at room temperature. Next 33.0 mL of deionized water was added and allowed to stir for 30 minutes. […] Lower doses were prepared by dilution in 5% dextrose from this stock immediately prior to use. To minimize any change of degradation, the test article solutions were kept on ice after preparation and until just prior to dosing procedures. The test article was administered in vitro, through a solvent compatible with the test system.
This assay has historically been used to detect mutation in a gene of a histidine requiring strain to produce a histidine independent strain or concordantly, to detect mutation in a gene of a tryptophan requiring strain to produce a tryptophan independent strain.
S. typhimurium strain TA1535 and E. coli strain Wp2-uvrA^− were received from American Type Culture Collection, Manassas, Va. […] All working stocks of test strains will be confirmed for genotypic markers and acceptable reversion rates.
Master plates of the tester strains were prepared from frozen working stocks. To create working cultures for each bacterial strain used in the assay, a single colony was transferred from the master plate into Oxoid nutrient broth and incubated, with shaking, at 37±2° C. until an optical density (at 650 nm) of 0.6-1.6 was reached. This overnight culture was used for the mutagenicity test and for genotypic confirmation. Genotype tests were performed.
For both the dose range and mutagenicity test, a top agar consisting of 0.6% Difco agar in 0.5% NaCl was melted and a solution of 0.5 mM L-histidine/0.5 mM biotin or 0.5 mM L-tryptophan was added to the melted top agar at a ratio of 10 mL per 100 mL agar, as required. The supplemented agar was aliquotted, 2 mL per tube and held at 45-47° C. To prepare the top agar for treatment, 0.1 mL of the test article or control, 0.1 mL of the bacterial culture and 0.5 mL of phosphate buffered saline were added to the molten agar. […] Metabolic activation was provided by adding 0.5 mL of the S9 mix in place of the PBS. […] All plates were counted using an automatic image analysis system. Negative control and test article treated plates were also examined for the presence of a bacterial lawn.
The in vitro metabolic activation system used in this assay was comprised of Sprague Dawley rat liver enzymes and a cofactor pool. […] Immediately prior to use, the S9 was thawed and mixed with a cofactor pool to contain 5% S9, 5 mM glucose 6-phosphate, 4 mM β-nicotine-adenine dinucleotide phosphate, 8 mM MgCl2 and 33 mM KCl in a 200 mM phosphate buffer at pH 7.4. The S9 was purchased from Moltox (Boone, N.C.) and maintained frozen at less than −70° C.
For the definitive assay, three dose levels were chosen ([…], and 5.0 mg/mL). This was equivalent to 2.0, 1.0, and 0.5 mg/plate. All treatments, including negative and positive control, were plated in triplicate against test strains TA97a, TA98, TA100, TA102, TA1535, and WP2-uvrA^− in the presence and absence of metabolic activation.

Ramos xenograft = experiment: Ramos Burkitt's lymphoma xenograft model; type: in vivo; settings: FIG. 5
Experimental: (§1) Two xenograft models for inoculation were harvested and diluted to a concentration of 50×10^6 cells/ml or 100×10^6 cells/ml. Four to six week old nude mice were injected with 0.1 ml of the cell suspension containing between 5×10^6 and 10×10^6 cells. When tumors are of a suitable size compound dosing is commenced. Tumor sizes are measured throughout the treatment period with calipers and body weights also measured.

[3] = target: c-Myc template DNA (c-myc quadruplex); experiment: Quadruplex binding / stop assay (Taq polymerase arrest, capillary electrophoresis)
Excerpt: A high throughput polymerase arrest assay has been developed. The assay comprises contacting a template nucleic acid, often DNA, with a primer, which also is often DNA; contacting the primer/template complex with a compound described herein (also referred to as a “test compound”); contacting the primer/template complex with a polymerase; and separating reaction products. The assay often includes the step of denaturing the primer/template complex mixture and then renaturing the complex, which often is carried out before a test molecule is added to the system. Multiple assays often are carried out using varying concentrations of a test compound, such that an IC50 value can be obtained, for example. The reaction products often include extended primers of different lengths.
Thus, the reaction mixture often includes at least two reaction products when a test compound interacts with a quadruplex structure in the template, one having a completely extended primer and one having an incompletely extended primer, and these two reaction products are separated. The products may be separated using any convenient separation method, such as mass spectrometry and in one embodiment, capillary electrophoresis.
In an embodiment, a primer oligonucleotide covalently linked to a fluorescent label is contacted with template DNA. The resulting complex is contacted with a test molecule and then contacted with a polymerase capable of extending the primer. The reaction products then are separated and detected by capillary electrophoresis. A longer primer sequence was used for practicing this embodiment as compared to embodiments where the primer includes no covalently-linked fluorophore or where capillary electrophoresis is not utilized for separation. Deoxynucleotides are added at any stage of the assay before the separation, often when the primer is contacted with the template DNA. The template DNA/primer complex often is denatured (e.g., by increasing the temperature of the system) and then renatured (e.g., by cooling the system) before a test compound is added).
The mixture was denatured at 95° C. for 5 minutes and, after cooling down to room temperature, was incubated at 37° C. for 15 minutes.
After cooling down to room temperature, 1 mM KCl and the test compound (various concentrations) were added and the mixture incubated for 15 minutes at room temperature. The primer extension was performed by adding 10 mM KCl and Taq DNA Polymerase (2.5 U/reaction, Promega) and incubating at 70° C. for 30 minutes. The reaction was stopped by adding 1 μl of the reaction mixture to 10 μl Hi-Di Formamide mixed and 0.25 μl LIZ120 size standard. Hi-Di Formamide and LIZ120 size standard were purchased from Applied Biosystems.
The partially extended quadruplex arrest product was between 61 or 62 bases long and the full-length extended product was 99 bases long. The products were separated and analyzed using capillary electrophoresis. Capillary electrophoresis was performed using an ABI PRISM 3100-Avant Genetic Analyzer.
Stop Assays. […] A fluorescently labeled primer DNA is then annealed to the 3′ end of the template DNA. A DNA polymerase such as Taq polymerase is then introduced to synthesize a complementary strand of DNA by extending from the fluorescently labeled primer. When the progress of the Taq polymerase is unhindered, it synthesizes a full-length copy of the template.
These products are visualized by capillary electrophoresis.

HCT-116 = experiment: Cell proliferation/cytotoxicity in HCT-116 (Table 1D); type: cell-based; settings: Homo sapiens; HCT-116 cells; unit inferred
HCT-116 cells = experiment: Annexin V-Alexa 488 staining; type: cell-based; settings: 0.5 uM, control
Experimental: The following protocol was followed for this example. […] Incubate o/n or up to 24 hrs at 37° C. in CO2 incubator. […] Keep one or two untreated plates (medium only) as control plates. […] Harvest cells (collect attached as well as floating cells). Wash cells twice with cold PBS. Re-suspend cells in 1× Annexin binding buffer.
Count cells and dilute in 1× Annexin binding buffer to ˜1×10^6 cells/0.1 ml, preparing a sufficient volume to have 100 μl per assay. Add 5 μl of the Annexin V conjugate to each 100 μl of cell suspension. Add 4 μl of propidium iodide solution (stock=1 mg/ml) to each 100 μl of cell suspension. Incubate sample at RT for 15 minutes. Add 400 μl Annexin binding buffer, mix gently and keep samples on ice. Analyze stained cells immediately by flow cytometry.

topoisomerase II = experiment: Topoisomerase-II poison assay; type: biochemical; settings: 1 μM; control Topoisomerase-II poison
Excerpt: FIG. 7 illustrates data from a toposiomerase-II poison assay, using VP-16 (Etoposide) as a control Topoisomerase-II poison.

HeLa cells = experiment: MTS cell proliferation and/or cytotoxicity assay; type: cell-based, Human; settings: Homo sapiens, HeLa
Summary of the method: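 HeLa cells seeded at 4,500 cells/well, exposed to compounds from day 1 for 3 days at 37 °C, 5% CO2. Viability by MTS/PMS (20:1) with 4 h incubation, absorbance at 490 nm. Values are concentrations giving 50% antiproliferative response.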

HCT-116 xenograft = experiment: HCT-116 colorectal cancer xenograft model; type: in vivo; settings: HCT-116 model; FIG. 6
Experimental: as §1
CX-3543 was tested against a number of cancer xenograft models to determine the in vivo efficacy. HCT-116 and PC-3 tumor-bearing nu/nu or MiaPaCa tumor-bearing SCID mice were administered reference and testing compounds on schedules indicated in figure legends. Tumor measurements were taken with calipers every other day or twice a week starting from the first day of dosing and body weights were measured at the same time points. Tumor volumes were calculated from the standard formula, W^2×L/2. c-MYC mRNA expression was measured with QPCR from all tumor samples following the final dose. 18S ribosomal RNA was used as a housekeeper and also quantified with QPCR.

[4] = CHO, positive control high dose (H)
[5] = CHO, positive control low dose (L)
[6] = CHO, positive control low dose (L), 20 hrs
[7] = read-out: S DATA, Table 1D, stop assay data
[8] = 72 h, concentration at which 50% of antiproliferative cell response is seen, 3 days incubation, read-out: MTS Data Hella
[9] = read-out: Stop Data c-Myc μM, concentration at which 50% of the DNA was arrested (arrested:full-length 1:1)
[10] = HeLa cells, MTS, read-out: Hela MTS

Row | Compound | IC50 [3, 7] | IC50 [3, 9] | IC50 (HCT-116) | IC50 (HeLa cells; [8]) | further results
1 | CO[C@@]12[C@H](COC(N)=O)C3=C(C(=O)C(C)=C(N)C3=O)N1C[C@@H]1N[C@@H]12 [MMC] | – | – | – | – | % CA 3 HRS [1, 4]: 42.0%; FI 3 HRS [1, 4]: 14.0; % CA 3 HRS [1, 5]: 20.3%; FI 3 HRS [1, 5]: 6.8; % CA 20 HRS [1, 6]: 26.5%; FI 20 HRS [1, 6]: 8.8; % MI 20 HRS ([1]; average mitotic index, positive control low dose (L), 20 hrs): 5%; % MI ([1]; average mitotic index, positive control low dose (L), first column (time not given)): 6%
2 | Nc1ccc2cc3ccccc3cc2c1 [2-AA] | – | – | – | – | FI ([2]; TA100, with S9 activation): 6.8; TA100 colony count (Rep 1-3) ([2]; TA100, with S9 activation): 655 and 857 and 949; TA100 colony count, Mean ([2]; TA100, with S9 activation): 820.3
3 | CN1CCN(CCCNCCC(=O)N[C@@H]2CCN(c3c(F)cc4c(=O)c(C(=O)N5CCOCC5)cn5c4c3Oc3cc4c(cc3-5)oc3ccccc34)C2)CC1 [compound 1204] | – | – | – | – | antitumor activity: efficacy (Ramos xenograft): slow tumor weight gain; toxicity (body weight) (Ramos xenograft): little body weight change
4 | CC[C@@]1(O)C(=O)OCc2c1cc1n(c2=O)Cc2cc3ccccc3nc2-1 [CPT] | – | – | – | – | Annexin V / duplex DNA dye response (HCT-116 cells): mixed apoptotic/necrotic response
5 | VP-16 | – | – | – | – | topoisomerase-II mediated DNA cleavage (topoisomerase II): formation of double-strand breaks
6 | O=C(NCCN1CCCC1)c1cn2c3c(c(NCCCN4CCOCC4)c(F)cc3c1=O)Oc1cc3ccccc3cc1-2 [compound 494] | – | 0.44 µM | – | 190 nM | antitumor activity: efficacy (HCT-116 xenograft): slow tumor weight gain; toxicity (body weight) (HCT-116 xenograft): little body weight change
7 | O=C(NCCCN1CCOCC1)c1cn2c3cc4c(cc3oc3c(NCCN5CCCC5)c(F)cc(c1=O)c32)c(=O)c1ccccc14 [compound 502] | – | 0.375 µM | – | 4000 nM | –
8 | CN(C)CCCCNc1c(F)cc2c(=O)c(C(=O)NCCC3CCCN3C)cn3c4cc5c(cc4oc1c23)c(=O)c1ccccc15 (centres unmarked) [compound 501] | – | 0.375 µM | – | 4200 nM | –
9 | O=C(NCCN1CCCC1)c1cn2c3cc4c(cc3oc3c(N5CC6CCCNC6C5)c(F)cc(c1=O)c32)c(=O)c1ccccc14 (centres unmarked) [compound 1726] | 0.125 µM | – | – | – | IC50 (HeLa cells; [10]): 2600 nM
10 | CN1CCCC1CCNC(=O)c1cn2c3c(c(N[C@H]4CN5CCC4CC5)c(F)cc3c1=O)Oc1cc3ccccc3cc1-2 (some centres unmarked) [compound 1496] | 0.375 µM | – | 340 nM | – | –
11 | CN1CCCC1CCNC(=O)c1cn2c3c(c(N[C@@H]4CN5CCC4CC5)c(F)cc3c1=O)Oc1cc3ccccc3cc1-2 (some centres unmarked) [compound 1497] | 0.5 µM | – | – | – | IC50 (HeLa cells; [10]): 390 nM
12 | CN1CCCC1CCNc1c(F)cc2c(=O)c(C(=O)NCCN3CCCC3)cn3c4cc5c(cc4oc1c23)c(=O)c1ccccc15 (centres unmarked) [compound 527] | – | 0.375 µM | – | 790 nM | –
13 | [N-]=[N+]=[N-] [Sodium Azide] | – | – | – | – | FI ([2]; TA100, without S9 activation): 4.9; TA100 colony count (Rep 1-3) ([2]; TA100, without S9 activation): 615 and 631 and 702; TA100 colony count, Mean ([2]; TA100, without S9 activation): 649.3

Continued, in another order:

Row | IC50 [3, 7] | IC50 [3, 9] | Compound | IC50 (HCT-116) | IC50 (HeLa cells; [8]) | further results
14 | 2.9 µM | – | CC(C)(C)OC(=O)N1CCN(c2c(F)cc3c(=O)c(C(=O)NCCN4CCCC4)cn4c3c2Oc2cc(Cl)ccc2-4)CC1 [compound 1818] | 40 nM | – | –
15 | 7.5 µM | – | COc1ccc(CN2CCN(c3c(F)cc4c(=O)c(C(=O)NCCN5CCCC5)cn5c4c3Oc3cc(Cl)ccc3-5)CC2)cc1 [compound 1828] | 100 nM | – | –
16 | 5 µM | – | O=C(NCCN1CCCC1)c1cn2c3c(c(NCCCN4CCOCC4)c(F)cc3c1=O)Oc1cc(Cl)ccc1-2 [compound 1816] | 30 nM | – | –
17 | 2.8 µM | – | O=C(NCCN1CCCC1)c1cn2c3c(c(N4CCC(c5cnccn5)C4)c(F)cc3c1=O)Oc1cc(Cl)ccc1-2 (centres unmarked) [compound 1811] | 200 nM | – | –
18 | 4.8 µM | – | CCN1CCN(c2c(F)cc3c(=O)c(C(=O)NCCN4CCCC4)cn4c3c2Oc2cc(Cl)ccc2-4)CC1 [compound 1827] | 10 nM | – | –
19 | 8.2 µM | – | O=C(NCCN1CCCC1)c1cn2c3c(c(N4CCNCC4)c(F)cc3c1=O)Oc1cc(Cl)ccc1-2 [compound 1820] | 30 nM | – | –
20 | 7.5 µM | – | CC(C)CN1CCN(c2c(F)cc3c(=O)c(C(=O)NCCN4CCCC4)cn4c3c2Oc2cc(Cl)ccc2-4)CC1 [compound 1826] | 30 nM | – | –
21 | – | 0.75 µM | O=C(NCCN1CCCC1)c1cn2c3c(c(NCCCN4CCOCC4)c(F)cc3c1=O)Oc1cc3c(cc1-2)-c1ccccc1C3 [compound 373] | – | 3300 nM | –
22 | – | 3 µM | O=C(NCCN1CCCC1)c1cn2c3c(c(N4CCC(c5cnccn5)C4)ccc3c1=O)Oc1ccccc1-2 (centres unmarked) [compound 30] | – | 1800 nM | –
23 | – | 0.375 µM | CN(C)CCCCNC(=O)c1cn2c3c(c(N4CC[C@@H](NC(=O)CCN5CCCC5)C4)c(F)cc3c1=O)Oc1cc3c(cc1-2)oc1ccccc13 [compound 510] | – | 3100 nM | –
24 | – | 0.375 µM | O=C(NCCN1CCCC1)c1cn2c3c(c(N4CC5CCCNC5C4)c(F)cc3c1=O)Oc1cc3ccccc3cc1-2 (centres unmarked) [compound 545] | – | 150 nM | –
